Measurements: patent US20100137391A1, “Histamine H3 Agonist for use as Therapeutic Agent for a Lipid/Glucose Metabolic Disorder” (priority 2005, published 2010)

Columns and labels:
H3RKO mice [1] = assay: Anti-obesity test with Imetit, H3RKO mice; assay type: in vivo
Description: (§1) Histamine H3 receptor knockout mice (hereinafter referred to as “H3RKO mice”) were produced by the method of Takahashi et al. (J. Clin. Invest, Vol. 110, p. 1791, 2002). The obtained knockout mice were subjected to back crossing with C57BL/6J over 5 generations. Six- to nine-month-old male litters were used in an acute drug administration test. On the other hand, 18- to 20-month-old mice whose parents were H3RKO mice or wild type mice (N5 of C57BL/6J) were used in a chronic drug administration test.
(§2) All mice were individually bred at 25° C., and light and dark were controlled every 12 hours. During breeding, water and feed were freely given to the mice. As such feed, CE2 (CLEA Japan, Inc.) was given to thin mice, and medium high fat diet (Oriental Bio Service Co., Ltd.) was given to DIO mice.
(§3) The concentration of each compound was set at 5 ml/kg.
(§4) Mice were divided into groups, depending on mean body weight and the amount of daily food intake before administration of the compound. The body weight and the amount of food intake were measured every day.
(§5) In the test using Thioperamide, mice were divided into 4 groups: a group in which a solvent was administered to C57BL/6J DiO mice at 9:00; a group in which 10 mpk Thioperamide was administered thereto at 9:00; a group in which a solvent was administered to C57BL/6J DiO mice at 17:00; and a group in which 10 mpk Thioperamide was administered thereto at 17:00. […] On the 10th day after the administration, such mice were left in a starvation state for 2 hours. Thereafter, blood was collected from the orbit of each mouse, and the glucose and insulin levels were measured.
(§6) A change in body weight was calculated by dividing a decrease in body weight by the body weight on day 0 at initiation of the test, and the calculated value was expressed as a percentage. The degree of obesity was measured using an NMR analyzer (Minispec; Bruker).

C57BL/6J mice = assay: Measurement of energy consumption (indirect calorimetry); assay type: in vivo; conditions: Imetit 5 mpk and 20 mpk vs vehicle
Procedure: Energy consumption was measured using Indirect calorimetry (Columbus Instrument). That is to say, C57BL/6J mice were acclimatized in a test chamber overnight, and VO2 (oxygen consumption) and VCO2 […] were then measured for 1 minute every 10 minutes. Sample air was collected every 10 minutes. RQ (respiratory quotient) was calculated by dividing […]. The test was carried out from 9:00 to 17:00. During the test, mice were allowed to freely ingest feed and water.

H3RKO mice [2] = assay: Measurement of amount of food intake (and body weight), H3RKO mice; assay type: in vivo
Description: as §1, §2, §3
(§7) The amount of food intake was measured based on the weight of feed at 19:00 and 23:00.

wild type mice [3] = assay: Measurement of amount of food intake (and body weight), wild type mice; assay type: in vivo
Description: as §1, §2, §3, §7

wild type mice [4] = system: wild type mice
Description: as §1, §2, §3, §4, §5, §6

C57BL/6J DiO mice = assay: Anti-obesity test with Thioperamide; assay type: in vivo; conditions: 10 mpk Thioperamide at 9:00 or 17:00; FIG. 6
Procedure: as §2, §3, §4, §5, §6

[5] = H3RKO, 10th day after administration, 2 hours starvation, blood
[6] = H3RKO, Imetit twice a day, NMR analyzer
[7] = Wild type, 10th day after administration, 2 hours starvation, blood
[8] = Wild type, Imetit twice a day, NMR analyzer

Row | Structure (SMILES) | body weight-decreasing effect (H3RKO mice [1]; H3RKO mice, Imetit twice a day) | Glucose (H3RKO mice [1]; [5]) [mg/dL] | Insulin (H3RKO mice [1]; [5]) [ng/mL] | Fat (%) (H3RKO mice [1]; [6]) | Lean body mass (%) (H3RKO mice [1]; [6]) | VO2 (oxygen consumption) (C57BL/6J mice; FIG. 8, 11) | VCO2 (C57BL/6J mice; FIG. 9, 11) | RQ (respiratory quotient) (C57BL/6J mice; FIG. 10, 11) | change in body weight (H3RKO mice [2]; FIG. 4) | amount of food intake (H3RKO mice [2]; oral administration, vs solvent control mice, FIG. 2) | change in body weight (wild type mice [3]; FIG. 3) | amount of food intake (wild type mice [3]; oral administration, vs solvent control mice, FIG. 1) | abnormal glucose tolerance (wild type mice [4]) | Glucose (wild type mice [4]; [7]) [mg/dL] | Insulin (wild type mice [4]; [7]) [ng/mL] | Fat (%) (wild type mice [4]; [8]) | Lean body mass (%) (wild type mice [4]; [8]) | insulin concentration in blood (wild type mice [4]; together with fat-decreasing effect) | body weight of fat mice (C57BL/6J DiO mice)
1 | N=C(N)SCCc1c[nH]cn1 [Imetit, carbamimidothioic acid 2-(1H-imidazol-4-yl)ethyl ester] | such effect was not observed in H3RKO mice | 166.7 ± 10.5 | 4.7 ± 0.9 | 46.3 ± 2.0 | 52.7 ± 1.4 | increases | increases | decrease | such a change in body weight was not observed | such a decrease in the amount of food intake was not observed | decreased depending on the number of doses | lower than that of control mice | improved | 164.1 ± 6.4 | 4.7 ± 0.8 | 39.2 ± 2.0 | 58.3 ± 1.6 | decreased | –
2 | S=C(NC1CCCCC1)N1CCC(c2cnc[nH]2)CC1 [Thioperamide] | – | – | – | – | – | – | – | – | – | – | – | – | – | – | – | – | – | – | tendency that the body weight of fat mice was increased
